In patent publication US20090226907A1, “ASSAY FOR DETECTION OF TELOMERASE ACTIVITY” (Sienna Cancer Diagnostics Limited, priority 2005, published 2009):
{SH-C6} = thiol hexyl linker

Biological target: T1, telomerase (Homo sapiens, UniProt O14746)
T1 construct: showing the effect of TBT oligonucleotide length in HEK293T cell lysates; endogenous in cells; host or cells: HEK293T cell lysate (CHAPS lysis buffer)
Test: TBT telomerase assay: effect of oligonucleotide length in HEK293T cell lysates
Type: biochemical
Details: luminescence, compared with short (0.5 repeat) and 2.5 repeat versions, FIG. 16
Description: FIG. 16 is a graphical representation showing the effect of TBT oligonucleotide length in HEK293T cell lysates. […]

T1 sequence (O14746 whole entry): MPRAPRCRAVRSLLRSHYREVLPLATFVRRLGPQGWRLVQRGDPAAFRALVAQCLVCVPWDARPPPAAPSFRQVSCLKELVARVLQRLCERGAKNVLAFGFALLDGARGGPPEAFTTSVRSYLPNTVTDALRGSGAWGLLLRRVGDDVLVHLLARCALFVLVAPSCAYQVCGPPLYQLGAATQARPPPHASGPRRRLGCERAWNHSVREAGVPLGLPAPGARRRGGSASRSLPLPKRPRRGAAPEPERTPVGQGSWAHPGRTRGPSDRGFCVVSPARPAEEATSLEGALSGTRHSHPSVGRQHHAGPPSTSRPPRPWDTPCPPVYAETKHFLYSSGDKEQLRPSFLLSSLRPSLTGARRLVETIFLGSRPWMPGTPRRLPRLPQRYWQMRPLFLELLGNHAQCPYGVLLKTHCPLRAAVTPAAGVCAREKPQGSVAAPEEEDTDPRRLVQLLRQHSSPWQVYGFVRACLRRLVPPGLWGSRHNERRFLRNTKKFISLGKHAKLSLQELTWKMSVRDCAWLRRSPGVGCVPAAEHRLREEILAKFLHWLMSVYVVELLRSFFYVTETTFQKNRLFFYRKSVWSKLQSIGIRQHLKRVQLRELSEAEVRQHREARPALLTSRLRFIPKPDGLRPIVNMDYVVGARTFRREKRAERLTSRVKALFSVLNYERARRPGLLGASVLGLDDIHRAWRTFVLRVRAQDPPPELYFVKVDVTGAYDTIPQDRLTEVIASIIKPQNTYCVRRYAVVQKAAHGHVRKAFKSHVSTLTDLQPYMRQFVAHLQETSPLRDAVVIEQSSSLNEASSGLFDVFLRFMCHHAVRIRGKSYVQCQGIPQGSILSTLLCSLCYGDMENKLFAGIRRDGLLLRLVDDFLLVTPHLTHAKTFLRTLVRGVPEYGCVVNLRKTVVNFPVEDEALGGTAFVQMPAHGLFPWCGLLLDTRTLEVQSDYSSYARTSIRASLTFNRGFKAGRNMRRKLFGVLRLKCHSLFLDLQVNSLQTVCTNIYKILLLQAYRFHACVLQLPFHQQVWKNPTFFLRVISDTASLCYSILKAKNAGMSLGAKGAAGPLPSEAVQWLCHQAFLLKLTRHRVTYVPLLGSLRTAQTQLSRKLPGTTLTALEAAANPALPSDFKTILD
T1 sequence (O60832 whole entry partner): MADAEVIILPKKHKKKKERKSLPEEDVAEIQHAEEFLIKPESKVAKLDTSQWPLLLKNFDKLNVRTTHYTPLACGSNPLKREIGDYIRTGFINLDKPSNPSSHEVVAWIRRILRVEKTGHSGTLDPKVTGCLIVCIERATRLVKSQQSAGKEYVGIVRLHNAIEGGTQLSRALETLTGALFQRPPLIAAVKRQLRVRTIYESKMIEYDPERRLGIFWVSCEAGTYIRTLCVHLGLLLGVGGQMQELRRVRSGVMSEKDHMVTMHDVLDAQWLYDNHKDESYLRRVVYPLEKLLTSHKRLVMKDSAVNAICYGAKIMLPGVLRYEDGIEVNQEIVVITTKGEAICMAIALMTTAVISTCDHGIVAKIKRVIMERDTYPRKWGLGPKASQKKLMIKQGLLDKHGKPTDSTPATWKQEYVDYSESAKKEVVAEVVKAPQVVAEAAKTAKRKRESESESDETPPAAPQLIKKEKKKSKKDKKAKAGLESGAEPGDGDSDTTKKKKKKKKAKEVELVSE
T1 sequence (Q9NPE3 whole entry partner): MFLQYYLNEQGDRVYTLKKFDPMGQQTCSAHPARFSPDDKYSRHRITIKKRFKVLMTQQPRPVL
T1 sequence (Q9NX24 whole entry partner): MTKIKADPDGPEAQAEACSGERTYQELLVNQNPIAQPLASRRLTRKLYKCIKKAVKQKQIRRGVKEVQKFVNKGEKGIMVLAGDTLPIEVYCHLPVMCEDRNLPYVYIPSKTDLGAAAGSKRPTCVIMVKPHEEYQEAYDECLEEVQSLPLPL
T1 sequence (Q9NY12 whole entry partner): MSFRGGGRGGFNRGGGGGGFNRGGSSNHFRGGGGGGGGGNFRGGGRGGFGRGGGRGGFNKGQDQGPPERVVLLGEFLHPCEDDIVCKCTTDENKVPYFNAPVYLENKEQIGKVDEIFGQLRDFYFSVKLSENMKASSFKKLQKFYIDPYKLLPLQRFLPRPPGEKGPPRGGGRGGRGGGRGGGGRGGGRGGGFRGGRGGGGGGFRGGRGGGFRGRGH
T1 sequence (Q9BUR4 whole entry partner): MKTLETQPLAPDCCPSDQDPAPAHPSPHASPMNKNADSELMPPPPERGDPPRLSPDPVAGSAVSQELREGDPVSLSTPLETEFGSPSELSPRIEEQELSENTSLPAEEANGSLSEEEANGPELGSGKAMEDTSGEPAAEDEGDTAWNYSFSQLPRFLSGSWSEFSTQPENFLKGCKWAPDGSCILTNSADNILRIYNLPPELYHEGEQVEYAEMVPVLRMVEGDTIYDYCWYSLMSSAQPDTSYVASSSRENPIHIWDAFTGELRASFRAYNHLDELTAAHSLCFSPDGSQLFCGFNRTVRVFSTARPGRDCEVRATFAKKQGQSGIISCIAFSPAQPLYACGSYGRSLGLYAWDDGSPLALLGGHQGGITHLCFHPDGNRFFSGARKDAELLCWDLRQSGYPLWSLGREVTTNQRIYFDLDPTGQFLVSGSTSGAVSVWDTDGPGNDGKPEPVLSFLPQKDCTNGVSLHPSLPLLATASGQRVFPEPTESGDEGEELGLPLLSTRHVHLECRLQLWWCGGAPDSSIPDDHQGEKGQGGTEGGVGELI

## 5′SH-(CH2)6-TTTTTTAATCCGTCGAGCAGAGTTAGGGTTAGGGTTAGG GTTAGGGTTAG (DNA TTTTTTAATCCGTCGAGCAGAGTTAGGGTTAGGGTTAGGGTTAGGGTTAG; DNA, 5' {SH-C6}, backbone and methylation of C not given here; bead-immobilized telomerase substrate oligo; listed as Homo sapiens) [longer version]
  absolute signal relative to the background signal (no telomerase extract): better absolute signal relative to the background signal
